# Experiments:
# [1] = system: Lorist6 (bacteriophage λ origin vector); assay: Effect of over-expression on Lorist6 replication; format: cell-based, E. coli; settings: over-expression from pJC
# Protocol: Effect on Lorist6 Replication of Over-Expressing of MC7.
# The effect of over-expressing Gp31 proteins from pJC vector series on the replication of the bacteriophage λ origin vector, Lorist6 (Gibson, T. J., Rosenthal, A. & Waterston, R. H. (1987) Gene 53, 283-286) in TG1 (Gibson, T. J. (1984) Ph.D. thesis, University of Cambridge, U.K) or SV1 (Georgopoulos, C., Hendrix, R. W., Casjens, S. R. & Kaiser, A. D. (1973) J. Mol. Biol. 76, 45-60) cells was determined essentially as described (Chatellier, J., Hill, F., Lund, P. & Fersht, A. R. (1998) Proc. Natl. Acad. Sci. U.S.A. 95, 9861-9866).
# bacteriophage λ = assay: Growth of bacteriophage λ in transformed groEL strains; format: cell-based, bacteriophage λ (b2cI) in E. coli
# Description: (§1) The E. Coli strains used in this study were: C41(DE3), a mutant of BL21(DE3) capable of expressing toxic genes (Miroux, B. & Walker, J. E. (1996) J. Mol. Biol. 260, 289-298); SV2 (B178groEL44), SV3 (B178groEL59) and SV6 (B178groEL673): isogenic strains carrying temperature-sensitive alleles of groEL; SV1(=B178) (Georgopoulos, C., Hendrix, R. W., Casjens, S. R. & Kaiser, A. D. (1973) J. Mol. Biol. 76, 45-60), A190 (ΔgroEL::kan^R) [pBAD-EL] (Ivic, A., Olden, D., Wallington, E. J. & Lund, P. A. (1997) Gene 194, 1-8), and TG1 (Gibson, T. J. (1984) Ph.D. thesis, University of Cambridge, U.K). Bacteriophage λb2cI (Zeilstra-Ryalls, J., Fayet, O., Baird, L. & Georgopoulos, C. (1993) J. Bacteriol. 175, 1134-1143) was used according to standard methods (Arber, W., Enquist, L., Hohn, B., Murray, N. E. & Murray, K. (1983) in Lambda II., ed. R. W. Hendrix, J. W. r., F. W. Stahl and R. A. Weisberg (Cold Spring Harbor Laboratory, Cold Spring Harbor, N.Y.), pp. 433-466); plaque formation was assayed at 30° C. T4D0, a derivative of bacteriophage T4 (Zeilstra-Ryalls, J., Fayet, O., Baird, L. & Georgopoulos, C. (1993) J. Bacteriol. 175, 1134-1143), was used according to standard methods (Karam, J. D. (1994) Molecular biology of bacteriophage T4. (American Society for Microbiology, Washington, D.C.)); plaque formation was assayed at 37° C.
# [2] = system: mutant Huntingdon exon 1-expressing PC12 and SH-SY5Y cells; assay: Inclusion formation and cell death, mutant Huntingdon exon 1; format: cell-based; settings: overexpression
# Description: These phenomena have been studied by transiently transfecting part of Huntingdon exon 1 in COS-7, PC12, and SH-SY5Y cells. Inclusion formation was not seen with constructs expressing 23 glutamines but was repeat length and time dependent for mutant constructs with 43-74 repeats. HSP70, HSP40, the 20S proteasome and ubiquitin colocalized with inclusions. […] Thus, inclusion formation may be enhanced in polyglutamine diseases, if the pathological process results in proteasome inhibition or a heat-shock response. […] To our knowledge, this is the first report of an HSP increasing aggregation of an abnormally folded protein in mammalian cells and expands the current understanding of the roles of HDJ-2yHSDJ in protein folding (See Wyttenbach, A. et al. (2000) Proc. Natl. Acad. Sci. USA 97, 2899-2903).
# We have tested MC72 in the same system.
# E. coli SV2 groEL44 = assay: In vivo complementation of ts groEL44 at 43° C.; format: cell-based; settings: plasmids pJC, relative to growth at 30° C.
# Protocol: In vivo Complementation Experiments.
# Complementation experiments were performed by transforming electro-competent SV2 or SV6 cells with the pJC series of expression vectors and plating an aliquot of the transformation reactions directly at 43° C. The percentage of viable cells relative to the growth at 30° C. was determined. A representative number of clones which grew at 43° C. were incubated in absence of any selective markers at permissive temperature. After prolonged growth the loss of the pJC plasmids and the ts phenotype were verified. Each experiment was performed in duplicate. Plasmids carrying no groE genes or encoding the GroE proteins were used as negative or positive controls, respectively.
# bacteriophage T4 = assay: Growth of bacteriophage T4 in transformed groEL strains; format: cell-based, bacteriophage T4 (T4D0) in E. coli; design: key to Growth of bacteriophage T4, SV1 (groEL^+) / Growth of bacteriophage T4, SV2 groEL44 / Growth of bacteriophage T4, SV3 GroEL59 / Growth of bacteriophage T4, SV6 groEL673: +++: normal plaque-forming ability relative to wild-type groEL^+ strain, in terms of both number and size; ++: 5-fold fewer plaques relative to wild-type groEL^+ strain, or both; 10-fold fewer plaques, or plaque size reduced relative to wild-type groEL^+ strain, or both; +/−: 10^2-fold fewer plaques and plaque size reduced relative to wild-type groEL^+ strain; no visible plaques (<10^−4); settings: 37° C.
# Description: as §1
substance,measurement,setting,value
"GroEL(1-548): key molecular chaperone in Escherichia coli, 14 subunits of 57.5 kD in two seven membered rings",replication of the Lorist6 plasmid,[1],inhibit the replication
same,"Growth of bacteriophage λ, SV1 (groEL^+)","bacteriophage λ; 30° C., SV1",− (no visible plaques (<10^−4))
same,"Growth of bacteriophage λ, SV2 groEL44","bacteriophage λ; 30° C., SV2","+ (10-fold fewer plaques, or plaque size reduced relative to wild-type groEL^+ strain, or both)"
same,"Growth of bacteriophage λ, SV3 GroEL59","bacteriophage λ; 30° C., SV3","++ (5-fold fewer plaques relative to wild-type groEL^+ strain, or both)"
same,"Growth of bacteriophage λ, SV6 groEL673","bacteriophage λ; 30° C., SV6",+/− (10^2-fold fewer plaques and plaque size reduced relative to wild-type groEL^+ strain)
same,Complementation of groEL mutant strains for bacteriophage λ growth,"bacteriophage λ; 30° C., groEL mutant strains",weak complementation
same,Effect of over-expression on λ growth / plaque counts,bacteriophage λ; SV1 (groE^+),suffices to inhibit λ growth
same,cell death,[2],no effect
same,inclusion formation,[2],no effect
same,"Relative colony forming ability, SV2 groEL44",E. coli SV2 groEL44,1
same,"Growth of bacteriophage T4, SV1 (groEL^+)",bacteriophage T4; SV1,+++
same,"Growth of bacteriophage T4, SV2 groEL44",bacteriophage T4; SV2,+++
same,"Growth of bacteriophage T4, SV3 GroEL59",bacteriophage T4; SV3,+++
same,"Growth of bacteriophage T4, SV6 groEL673",bacteriophage T4; SV6,+++

# Source: patent US20020193564A1, “Oligomeric chaperone proteins” (priority 1999, published 2002)
